Experimental findings from PMC4050370 (Nature structural & molecular biology, 2014) are described below.

The assay has as its target LeuT (leucine transporter) (Aquifex aeolicus, UniProt O67854). Kind of assay: [3H]-Ala uptake in proteoliposomes. It counts as biochemical. Conditions: Na+-dependent; 50 mM NaCl, 50 mM Tris-Mes pH 8.5, 22 °C; labelled compound.

Regarding `C[C@H](N)C(=O)O` [alanine], the “[3H]-Ala uptake in proteoliposomes” value is listed as “we measured Na^+-dependent alanine uptake in proteoliposomes for a large subset of mutants”.
